Test results published in US10005773B2, “1-(4-pyrimidinyl)-1H-pyrrolo[3,2-c]pyridine derivatives as NIK inhibitors” (Janssen Pharmaceutica NV, priority 2013, dated 2018).

Assays:
[1] = target: T1, Recombinant Human NF-kappaB-Inducing Kinase (NIK/MAP3K14) (Homo sapiens, UniProt Q99558); assay: Biological Assay A: inhibition of recombinant human NIK/MAP3K14 activity (MSD, MBP substrate); details: 25 μM ATP, 10 nM NIK/MAP3K14, 1 h at 25° C.; averaged over all batches; read-out: Biochemical (MSD MBP) IC50
T1 sequence (Q99558 whole entry): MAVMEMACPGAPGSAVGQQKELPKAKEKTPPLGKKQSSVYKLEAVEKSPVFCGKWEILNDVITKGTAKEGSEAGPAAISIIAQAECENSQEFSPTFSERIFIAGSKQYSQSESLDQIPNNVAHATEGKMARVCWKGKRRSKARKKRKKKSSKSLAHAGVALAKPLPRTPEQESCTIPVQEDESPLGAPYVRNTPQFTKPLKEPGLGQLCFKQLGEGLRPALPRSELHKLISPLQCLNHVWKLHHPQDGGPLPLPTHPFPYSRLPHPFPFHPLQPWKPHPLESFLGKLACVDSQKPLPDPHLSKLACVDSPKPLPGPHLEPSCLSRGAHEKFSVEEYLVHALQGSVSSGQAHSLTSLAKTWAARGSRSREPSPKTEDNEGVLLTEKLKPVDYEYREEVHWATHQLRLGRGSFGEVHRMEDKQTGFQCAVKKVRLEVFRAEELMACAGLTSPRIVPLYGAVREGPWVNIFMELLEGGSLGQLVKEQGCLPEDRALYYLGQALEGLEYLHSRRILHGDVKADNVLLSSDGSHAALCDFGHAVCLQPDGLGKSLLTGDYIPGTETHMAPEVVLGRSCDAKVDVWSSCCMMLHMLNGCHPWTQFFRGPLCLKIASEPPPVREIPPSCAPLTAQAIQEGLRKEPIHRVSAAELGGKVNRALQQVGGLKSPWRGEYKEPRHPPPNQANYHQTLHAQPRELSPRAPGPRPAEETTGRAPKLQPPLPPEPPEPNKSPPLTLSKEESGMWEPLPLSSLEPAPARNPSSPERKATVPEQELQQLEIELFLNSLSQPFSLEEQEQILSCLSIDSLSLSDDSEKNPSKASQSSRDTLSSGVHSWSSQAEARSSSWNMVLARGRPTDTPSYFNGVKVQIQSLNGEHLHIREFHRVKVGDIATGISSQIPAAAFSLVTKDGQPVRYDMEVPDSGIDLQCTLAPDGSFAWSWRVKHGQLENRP
Procedure: Inhibition of Recombinant Human NF-kappaB-Inducing Kinase (NIKIMAP3K14) Activity
Assay buffer was 50 mM Tris pH 7.5 containing 1 mM ethylene glycol tetraacetic acid (EGTA), 1 mM dithiothreitol (DTT), 0.1 mM Na3VO4, 5 mM MgCl2, 0.01% Tween® 20. Assays were carried out in 384 well Mesoscale high binding plates which had been coated with myelin basic protein (MBP) and blocked with bovine serum albumin to prevent non-specific protein binding. All compounds tested were dissolved in dimethyl sulfoxide (DMSO) and further dilutions were made in assay buffer. Final DMSO concentration was 1% (v/v) in assays. Incubations consisted of compound (1% DMSO in control and blank wells), 25 μM Adenosine-5′-triphosphate (ATP), and 10 nM NIK/MAP3K14 substituting enzyme with buffer in the blank wells. Incubations were carried out for 1 h at 25° C. and were followed by washing and sequential incubation with rabbit anti-phospho-MBP and anti-rabbit Ig Sulfotag antibody before reading bound Sulfotag on a Mesoscale Discovery. Signal obtained in the wells containing blank samples was subtracted from all other wells and IC50's were determined by fitting a sigmoidal curve to % inhibition of control versus Log10 compound concentration.

[2] = test system: JJN-3 cells; assay: Biological Assay C: antiproliferative activity on JJN-3 cells (CellTiter-Glo); assay type: cell-based; details: Homo sapiens, 72 hr treatment
Procedure: (§1) Determination of Antiproliferative Activity on LP-1, L-363 and JJN-3 Cells
(§2) All compounds tested were dissolved in DMSO and further dilutions were made in culture medium. Final DMSO concentration was 0.3% (v/v) in cell proliferation assays. Viability was assessed using CellTiter-Glo cell viability assay kit (Promega). The human LP-1, L-363 and JJN-3 cells (DSMZ) were cultured in RPMI 1640 medium supplemented with 2 mM L-glutamine, and 10% fetal calf serum (PAA). Cells were routinely kept as suspension cells at 37° C. in a humidified 5% CO2 atmosphere. Cells were passaged at a seeding density of 0.2×10^6/ml twice a week. Cells were seeded in black tissue culture treated 96-well plates (Perkin Elmer). Densities used for plating ranged from 2,000 to 6,000 cells per well in a total volume of 75 μl medium. After twenty four hours, drugs and/or solvents were added (25 μl) to a final volume of 100 μl. Following 72 hr of treatment plates were removed from the incubator and allowed to equilibrate to room temperature for approx 10 min. 100 μl CellTiter-Glo reagent was added to each well that was then covered (Perkin Elmer Topseal) and shaken on plate shaker for 10 min. Luminescence was measured on a HTS Topcount (Perkin Elmer). Within an experiment, the results for each treatment were the mean of 2 replicate wells. For initial screening purposes, compounds were tested using a 9 point dilution curve (serial 1:3 dilutions). For each experiment, controls (containing no drug) and a blank incubation (containing cells read at the time of compound addition) were run in parallel. The blank value was subtracted from all control and sample values. For each sample, the mean value for cell growth (in relative light units) was expressed as a percentage of the mean value for cell growth of the control.

[3] = test system: L-363 cells; assay: Biological Assay C: antiproliferative activity on L-363 cells (CellTiter-Glo); assay type: cell-based; details: Homo sapiens, 72 hr treatment
Procedure: as §1, §2

[4] = target: T1, Recombinant Human NF-kappaB-Inducing Kinase (NIK/MAP3K14); assay: Biological Assay A2: inhibition of auto-phosphorylation of recombinant human NIK/MAP3K14 (AlphaScreen); assay type: biochemical; details: 25 microM ATP, 0.2 nM NIK/MAP3K14, 1 h at 25° C., averaged over all batches, read-out: Alpha-Screen IC50
Procedure: Inhibition of Auto-Phosphorylation of Recombinant Human NF-kappaB-Inducing Kinase (NIKIMAP3K14) Activity (AlphaScreen®)
NIK/MAP3K14 auto-phosphorylation activity was measured using the AlphaScreen® (ascreen) format (Perkin Elmer). All compounds tested were dissolved in dimethyl sulfoxide (DMSO) and further dilutions were made in assay buffer. Final DMSO concentration was 1% (v/v) in assays. Assay buffer was 50 mM Tris pH 7.5 containing 1 mM EGTA (ethylene glycol tetraacetic acid), 1 mM DTT (dithiothreitol), 0.1 mM Na3VO4, 5 mM MgCl2, 0.01% Tween® 20. Assays were carried out in 384 well Alphaplates (Perkin Elmer). Incubations consisted of compound, 25 microM Adenosine-5′-triphosphate (ATP), and 0.2 nM NIK/MAP3K14. Incubations were initiated by addition of GST-tagged NIK/MAP3K14 enzyme, carried out for 1 h at 25° C. and terminated by addition of stop buffer containing anti-phospho-IKK Ser176/180 antibody. Protein A Acceptor and Glutathione-Donor beads were added before reading using an EnVision® Multilabel Plate Reader (Perkin Elmer). Signal obtained in the wells containing blank samples was subtracted from all other wells and IC50's were determined by fitting a sigmoidal curve to % inhibition of control versus Log10 compound concentration.

[5] = test system: LP-1 cells; assay: Biological Assay C: antiproliferative activity on LP-1 cells (CellTiter-Glo); assay type: cell-based; details: Homo sapiens, 72 hr treatment
Procedure: as §1, §2

[6] = test system: P-IKKα levels in L363 cells; assay: Biological Assay B: effect of compounds on P-IKKα levels in L363 cells; assay type: cell-based; details: Homo sapiens, L-363, BAFF stimulated, 2 hr treatment, averaged over all batches, read-out: IKKα Cellular IC50
Procedure: Effect of Compounds on P-IKKα Levels in L363 Cells
All compounds tested were dissolved in DMSO and further dilutions were made in culture medium. Final DMSO concentration was 1% (v/v) in cell assays. The human L363 cells (ATCC) were cultured in RPMI 1640 medium supplemented with GlutaMax and 10% fetal calf serum (PAA). Cells were routinely maintained at densities of 0.2×10^6 cells per ml-1×10^6 cells per ml at 37° C. in a humidified 5% CO2 atmosphere. Cells were passaged twice a week splitting back to obtain the low density. Cells were seeded in 96 well plates (Nunc 167008) at 2×10^6 per ml media in a volume of 75 μl per well plus 25 μl 1 μg/ml recombinant human B-cell activating factor (BAFF/BLyS/TNFSF13B). Seeded cells were incubated at 37° C. in a humidified 5% CO2 atmosphere for 24 hr. Drugs and/or solvents were added (20 μl) to a final volume of 120 μl. Following 2 hr treatment plates were removed from the incubator and cell lysis was achieved by the addition of 30 μl 5× lysis buffer followed by shaking on a plate shaker at 4° C. for 10 min. At the end of this incubation lysed cells were centrifuged at 800×g for 20 min at 4° C. and the lysate was assessed for P-IKKα levels by sandwich immuno-assay carried out in anti-rabbit antibody coated Mesoscale plates. Within an experiment, the results for each treatment were the mean of 2 replicate wells. For initial screening purposes, compounds were tested using an 8 point dilution curve (serial 1:3 dilutions). For each experiment, controls (containing MG132 and BAFF but no test drug) and a blank incubation (containing MG132 and BAFF and 10 μM ADS125117, a test concentration known to give full inhibition) were run in parallel. The blank incubation value was subtracted from all control and sample values. To determine the IC50 a sigmoidal curve was fitted to the plot of % inhibition of control P-IKKα levels versus Log10 compound concentration.

Compound | IC50 [1] | EC50 [2] | EC50 [3] | IC50 [4] | EC50 [5] | IC50 [6]
Nc1ncc(F)c(-n2cc(CCCO)c3cnc(C#CC4(O)CCCC4)cc32)n1 [Compound 30] | 6.9 nM | 913 nM | 1690 nM | 17 nM | 4050 nM | 38 nM
CC(C)(O)C#Cc1cc2c(cn1)c(CCC(C)(C)O)cn2-c1ccnc(N)n1 [Compound 31] | 13 nM | 358 nM | 972 nM | 14 nM | 7070 nM | 80 nM
CC(C)(O)CCc1cn(-c2ccnc(N)n2)c2cc(C#CC3(O)CCCC3)ncc12 [Compound 32] | 22 nM | 473 nM | 1800 nM | 12 nM | 6890 nM | 154 nM
CC(C)(O)C#Cc1cc2c(cn1)c(CCC(C)(C)O)cn2-c1nc(N)ncc1F [Compound 33] | 53 nM | 1730 nM | 903 nM | 25 nM | 5350 nM | 256 nM
CC(C)(O)CCc1cn(-c2nc(N)ncc2F)c2cc(C#CC3(O)CCCC3)ncc12 [Compound 34] | 11 nM | 1710 nM | 2240 nM | 13 nM | 3390 nM | 199 nM
CC(C)(O)C#Cc1cc2c(cn1)c(/C=C/C#N)cn2-c1ccnc(N)n1 [Compound 35] | 89 nM | 420 nM | 959 nM | 49 nM | 2060 nM | 161 nM
CC(C)(O)C#Cc1cc2c(cn1)c(CCC#N)cn2-c1ccnc(N)n1 [Compound 36] | 25 nM | 199 nM | 360 nM | 12 nM | 4540 nM | 18 nM
N#CCCc1cn(-c2ccnc(N)n2)c2cc(C#CC3(O)CCCC3)ncc12 [Compound 37] | 5.1 nM | 871 nM | 1300 nM | 29 nM | 5170 nM | 119 nM
